Assays:
AuroraA-TPX2 = biological target: T1, AuroraA-TPX2 (Homo sapiens, UniProt O14965); test: AuroraA-TPX2 Homogeneous Time Resolved Fluorescent (HTRF) kinase assay; assay type: biochemical; details: average; read-out: AurA_IC50_IP (uM Avg)
T1 construct: 20 μL of AuroraA-TPX2 KD GST for a final volume of about 41 μL; GST
T1 sequence (O14965 133-383 limits assumed): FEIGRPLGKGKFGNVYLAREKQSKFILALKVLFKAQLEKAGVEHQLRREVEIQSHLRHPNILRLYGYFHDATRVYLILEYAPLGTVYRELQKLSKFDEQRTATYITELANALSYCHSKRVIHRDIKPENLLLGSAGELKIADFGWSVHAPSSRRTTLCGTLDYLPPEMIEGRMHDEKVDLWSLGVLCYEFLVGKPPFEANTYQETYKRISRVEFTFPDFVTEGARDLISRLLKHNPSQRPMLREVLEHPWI
T1 sequence (Q9ULW0 1-43 partner limits assumed): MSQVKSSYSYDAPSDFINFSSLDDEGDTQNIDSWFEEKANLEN
Method in brief: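 HTRF read-out (Eu 615 nm to APC 655 nm) of phosphorylated biotin-PLK, detected with 0.02 nM europium anti-phosphoPLK antibody and 0.0005 mg/mL SA-APC after overnight equilibration.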

AuroraB = biological target: T2, AuroraB (Homo sapiens, UniProt Q96GD4); test: AuroraB Homogeneous Time Resolved Fluorescent (HTRF) kinase assay; assay type: biochemical; details: average; read-out: AurB_IC50_IP (uM Avg)
T2 construct: 20 μL of AuroraB FL H is for a final volume of 41 μL; His
T2 sequence (Q96GD4 whole entry): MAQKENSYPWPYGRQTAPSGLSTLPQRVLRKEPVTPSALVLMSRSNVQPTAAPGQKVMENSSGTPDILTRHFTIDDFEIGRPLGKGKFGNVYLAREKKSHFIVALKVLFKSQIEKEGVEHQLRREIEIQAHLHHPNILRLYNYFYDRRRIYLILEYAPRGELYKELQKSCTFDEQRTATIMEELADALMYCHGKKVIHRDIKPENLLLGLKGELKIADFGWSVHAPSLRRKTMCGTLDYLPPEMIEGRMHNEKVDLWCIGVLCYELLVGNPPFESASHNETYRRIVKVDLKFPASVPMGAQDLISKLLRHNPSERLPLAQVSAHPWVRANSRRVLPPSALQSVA
Method in brief: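 Read-out is time-resolved FRET between europium anti-phospho-H3 antibody and streptavidin-APC, added in EDTA buffer to stop the reaction and equilibrated about 60 min (ex 320, em 615 and 655 nm). Preceding reaction: ~90 min, full-length enzyme, ATP, 0.1 μM biotin-Histone H3 substrate, Mg/Mn HEPES buffer pH 7.5.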

Row | Compound | IC50 (AuroraA-TPX2) [µM] | IC50 (AuroraB) [µM]
1 | COc1cnc2c(Oc3cnc(Nc4nnc(-c5ccccc5)c5ccccc45)nc3)ccnc2c1 [compound 84, N-(5-((7-(methyloxy)-1,5-naphthyridin-4-yl)oxy)-2-pyrimidinyl)-4-phenyl-1-phthalazinamine] | 0.16 | 0.002
2 | COc1cnc2c(Oc3ccc(Nc4nnc(N5CCN(C)CC5)c5ccccc45)cc3)ccnc2c1 [compound 85, N-(4-((7-(methyloxy)-1,5-naphthyridin-4-yl)oxy)phenyl)-4-(4-methyl-1-piperazinyl)-1-phthalazinamine] | 0.066 | 0.004
3 | Cc1csc(-c2nnc(Nc3ccc(Oc4ccnc5cc(C#N)ccc45)cc3)c3ccccc23)n1 [compound 86, 4-((4-((4-(4-methyl-1,3-thiazol-2-yl)-1-phthalazinyl)amino)phenyl)oxy)-7-quinolinecarbonitrile] | 0.031 | 0.014
4 | COc1ccc(F)cc1-c1nnc(Nc2ccc(Oc3ccnc4cc(C#N)ccc34)cc2)c2ccccc12 [compound 87, 4-((4-((4-(5-fluoro-2-(methyloxy)phenyl)-1-phthalazinyl)amino)phenyl)oxy)-7-quinolinecarbonitrile] | 0.142 | 0.013
5 | Cc1ccc(-c2nnc(Nc3ccc(Oc4ccnc5cc(C#N)ccc45)cc3)c3ccccc23)cc1 [compound 88, 4-((4-((4-(4-methylphenyl)-1-phthalazinyl)amino)phenyl)oxy)-7-quinolinecarbonitrile] | 0.006 | 0.003
6 | COc1cnc2c(Oc3ccc(Nc4nnc(-c5ccccc5)c5ccccc45)cc3F)ccnc2c1 [compound 89, N-(3-fluoro-4-((7-(methyloxy)-1,5-naphthyridin-4-yl)oxy)phenyl)-4-phenyl-1-phthalazinamine] | 0.012 | 0.007
7 | COc1cc2nccc(Oc3ccc(Nc4nnc(-c5ccccc5)c5ccccc45)cc3)c2cc1OC [compound 90, N-(4-((6,7-bis(methyloxy)-4-quinolinyl)oxy)phenyl)-4-phenyl-1-phthalazinamine] | 0.019 | 0.025
8 | COc1ccc2c(Oc3ccc(Nc4nnc(-c5ccccc5)c5ccccc45)cc3)ccnc2c1 [compound 91, N-(4-((7-(methyloxy)-4-quinolinyl)oxy)phenyl)-4-phenyl-1-phthalazinamine] | 0.054 | 0.012
9 | COc1cnc2c(Oc3ccc(Nc4nnc(N5CCN6CCCC6C5)c5ccccc45)cc3)ccnc2c1 (stereo not drawn) [compound 92, 4-(hexahydropyrrolo[1,2-a]pyrazin-2(1H)-yl)-N-(4-((7-(methyloxy)-1,5-naphthyridin-4-yl)oxy)phenyl)-1-phthalazinamine] | 0.007 | 0.003
10 | N#Cc1ccc2c(Oc3ccc(Nc4nnc(-c5cccc(O)c5)c5ccccc45)cc3)ccnc2c1 [compound 93, 4-((4-((4-(3-hydroxyphenyl)-1-phthalazinyl)amino)phenyl)oxy)-7-quinolinecarbonitrile] | 0.008 | 0.001
11 | CN1CCN(c2nnc(Nc3ccc(Oc4ccnc5cc(C#N)ccc45)cc3)c3ccccc23)CC1 [compound 94, 4-((4-((4-(4-methyl-1-piperazinyl)-1-phthalazinyl)amino)phenyl)oxy)-7-quinolinecarbonitrile] | 0.027 | 0.001
12 | Cc1csc(-c2nnc(Nc3ccc(Oc4ccnc5cc(C(N)=O)ccc45)cc3)c3ccccc23)n1 [compound 95, 4-((4-((4-(4-methyl-1,3-thiazol-2-yl)-1-phthalazinyl)amino)phenyl)oxy)-7-quinolinecarboxamide] | 0.027 | 0.002
13 | COc1cc2nccc(Oc3ccc(Nc4nnc(-c5ccccc5)c5ccccc45)cc3)c2cn1 [compound 96, N-(4-((7-(methyloxy)-1,6-naphthyridin-4-yl)oxy)phenyl)-4-phenyl-1-phthalazinamine] | 0.026 | 0.005
14 | COc1cnc2c(Oc3ccc(Nc4nnc(N5CCN6CCC[C@H]6C5)c5ccccc45)cc3)ccnc2c1 [compound 97, 4-((8aS)-hexahydropyrrolo[1,2-a]pyrazin-2(1H)-yl)-N-(4-((7-(methyloxy)-1,5-naphthyridin-4-yl)oxy)phenyl)-1-phthalazinamine] | 0.01 | 0.002
15 | COc1cc2ncnc(Oc3ccc(Nc4nnc(-c5ccccc5)c5ccccc45)cc3)c2cc1OC [compound 98, N-(4-((6,7-bis(methyloxy)-4-quinazolinyl)oxy)phenyl)-4-phenyl-1-phthalazinamine] | 0.016 | 0.007
16 | COc1cnc2c(Oc3ccc(Nc4nnc(-c5cccc(OC)n5)c5ccccc45)cc3)ccnc2c1 [compound 99, N-(4-((7-(methyloxy)-1,5-naphthyridin-4-yl)oxy)phenyl)-4-(6-(methyloxy)-2-pyridinyl)-1-phthalazinamine] | 0.01 | 0.002
17 | COc1ccc2c(Oc3ccc(Nc4nnc(-c5cccc(OC)n5)c5ccccc45)cc3)ccnc2c1 [compound 100, 4-(6-(methyloxy)-2-pyridinyl)-N-(4-((7-(methyloxy)-4-quinolinyl)oxy)phenyl)-1-phthalazinamine] | 0.038 | 0.006
18 | COc1cccc(-c2nnc(Nc3ccc(Oc4ccnc5cc(OC)c(OC)cc45)cc3)c3ccccc23)n1 [compound 101, N-(4-((6,7-bis(methyloxy)-4-quinolinyl)oxy)phenyl)-4-(6-(methyloxy)-2-pyridinyl)-1-phthalazinamine] | 0.01 | 0.01
19 | COc1cccc(-c2nnc(Nc3ccc(Oc4ccnc5cc(C#N)ccc45)cc3)c3ccccc23)n1 [compound 102, 4-((4-((4-(6-(methyloxy)-2-pyridinyl)-1-phthalazinyl)amino)phenyl)oxy)-7-quinolinecarbonitrile] | 0.028 | 0.003
20 | COc1cc2nccc(Oc3ccc(Nc4nnc(-c5ccc(C)cn5)c5ccccc45)cc3)c2cn1 [compound 103, N-(4-((7-(methyloxy)-1,6-naphthyridin-4-yl)oxy)phenyl)-4-(5-methyl-2-pyridinyl)-1-phthalazinamine] | 0.035 | 0.004
21 | COc1cc2nccc(Sc3ccc(Nc4nnc(-c5ccccc5)c5ccccc45)cc3)c2cc1OC [compound 104, N-(4-((6,7-bis(methyloxy)-4-quinolinyl)thio)phenyl)-4-phenyl-1-phthalazinamine] | 0.036 | 0.042
22 | N#Cc1ccc2c(Oc3ccc(Nc4nnc(-c5ccccc5)c5ccccc45)cc3)ccnc2c1 [compound 105, 4-((4-((4-phenyl-1-phthalazinyl)amino)phenyl)oxy)-7-quinolinecarbonitrile] | 0.039 | 0.003
23 | COc1cc2nccc(Oc3ccc(Nc4nnc(-c5ccc(C(C)(C)C)cc5)c5ccccc45)cc3)c2cc1OC [compound 106, N-(4-((6,7-bis(methyloxy)-4-quinolinyl)oxy)phenyl)-4-(4-(1,1-dimethylethyl)phenyl)-1-phthalazinamine] | 0.01 | 0.038
24 | COc1cnc2c(Oc3ccc(Nc4nnc(-c5ccccc5)cc4C)cc3)ccnc2c1 [compound 107, 4-methyl-N-(4-((7-(methyloxy)-1,5-naphthyridin-4-yl)oxy)phenyl)-6-phenyl-3-pyridazinamine] | 0.018 | 0.005
25 | CCc1cc(-c2ccccc2)nnc1Nc1ccc(Oc2ccnc3cc(OC)cnc23)cc1 [compound 108, 4-ethyl-N-(4-((7-(methyloxy)-1,5-naphthyridin-4-yl)oxy)phenyl)-6-phenyl-3-pyridazinamine] | 0.016 | 0.004
26 | COc1cc2nccc(Oc3ccc(Nc4nnc(N5CCN(C)CC5)c5ccccc45)cc3)c2cn1 [compound 109, N-(4-((7-(methyloxy)-1,6-naphthyridin-4-yl)oxy)phenyl)-4-(4-methyl-1-piperazinyl)-1-phthalazinamine] | 0.06 | 0.001
27 | COc1cc2nccc(Oc3ccc(Nc4nnc(-c5cccc(C)n5)c5ccccc45)cc3)c2cn1 [compound 110, N-(4-((7-(methyloxy)-1,6-naphthyridin-4-yl)oxy)phenyl)-4-(6-methyl-2-pyridinyl)-1-phthalazinamine] | 0.043 | 0.002
28 | COc1cnc2c(Oc3ccc(Nc4nnc(-c5cccc(C)n5)c5ccccc45)cc3)ccnc2c1 [compound 111, N-(4-((7-(methyloxy)-1,5-naphthyridin-4-yl)oxy)phenyl)-4-(6-methyl-2-pyridinyl)-1-phthalazinamine] | 0.04 | 0.005
29 | COc1cc2nccc(Oc3ccc(Nc4nnc(-c5cccc(CO)n5)c5ccccc45)cc3)c2cc1OC [compound 112, (6-(4-((4-((6,7-bis(methyloxy)-4-quinolinyl)oxy)phenyl)amino)-1-phthalazinyl)-2-pyridinyl)methanol] | 0.015 | 0.003
30 | COc1cc2nccc(Oc3ccc(Nc4nnc(-c5cccc(COC(C)=O)n5)c5ccccc45)cc3)c2cc1OC [compound 113, (6-(4-((4-((6,7-bis(methyloxy)-4-quinolinyl)oxy)phenyl)amino)-1-phthalazinyl)-2-pyridinyl)methyl acetate] | 0.014 | 0.011

— US8557816B2, “Aurora kinase modulators and method of use” (Amgen Inc., priority 2007, dated 2013)
